Results: patent publication EP2508526A1, “Spiroalkene carboxamide derivatives and their use as chemokine receptor modulators” (Ares Trading SA, priority 2011, dated 2012)
Where a name gives a salt, the structure may show the parent alone.

Target: T1, hCCR2b (Homo sapiens, UniProt P41597)
T1 sequence (P41597 1-360 isoform P41597-2): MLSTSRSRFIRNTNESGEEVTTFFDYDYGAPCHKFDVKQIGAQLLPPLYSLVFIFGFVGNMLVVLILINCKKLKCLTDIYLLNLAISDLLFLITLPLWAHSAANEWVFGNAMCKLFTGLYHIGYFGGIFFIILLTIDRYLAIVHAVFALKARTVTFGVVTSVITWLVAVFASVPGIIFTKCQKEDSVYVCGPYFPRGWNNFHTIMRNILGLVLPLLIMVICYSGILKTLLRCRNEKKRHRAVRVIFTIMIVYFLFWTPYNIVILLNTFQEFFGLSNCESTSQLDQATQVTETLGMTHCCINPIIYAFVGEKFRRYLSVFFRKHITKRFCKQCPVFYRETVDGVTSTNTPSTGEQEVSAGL
Assay: CCR2 binding assay ([125I]MCP-1, SPA, CHO cell membranes)
Design: expressed in transfected cells; host or cells: CHO cells (membrane preparation)
Conditions: membranes from CHO cells expressing hCCR2b, 50 pM [125I]MCP-1; read-out: Binding hCCR2 (Ki)
How it was run: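 CHO membranes expressing hCCR2b (1–5 µg/well) with 50 pM [125I]MCP-1 and WGA SPA beads in 50 mM HEPES pH 7.4, 5 mM MgCl2, 1 mM CaCl2, 0.1% BSA, 1% DMSO; 90 min RT with agitation. Bound counts on scintillation counter; nonspecific defined by 1000-fold excess unlabeled compound.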

Row | Structure (SMILES) | Ki [nM]
1 | CC1=C(C(=O)N2CCc3ncc(C(F)(F)F)cc3C2)C2(CCN(CCF)CC2)OC1=O [Compound 116, 8-(2-fluoroethyl)-3-methyl-4-{[3-(trifluoromethyl)-7,8-dihydro-1,6-naphthyridin-6(5H)-yl]carbonyl}-1-oxa-8-azaspiro[4.5]dec-3-en-2-one] | < 50
2 | CC1=C(C(=O)N2CCN(c3cccc(C(F)(F)F)c3)CC2)C2(CCN(CCc3ccccc3)CC2)OC1=O [Compound 102, 3-methyl-8-(2-phenylethyl)-4-({4-[3-(trifluoromethyl)phenyl]piperazin-1-yl}carbonyl)-1-oxa-8-azaspiro[4.5]dec-3-en-2-one] | < 50
3 | CC1=C(C(=O)N2CCc3ccc(C(F)(F)F)cc3C2)C2(CCNCC2)OC1=O [Compound 76, 3-methyl-4-{[7-(trifluoromethyl)-3,4-dihydroisoquinolin-2(1H)-yl]carbonyl}-1-oxa-8-azaspiro[4.5]dec-3-en-2-one, hydrocloride salt] | < 50
4 | CCN1CCC2(CC1)OC(=O)C(C)=C2C(=O)NCCc1cccc(C(F)(F)F)c1 [Compound 99, 8-ethyl-3-methyl-2-oxo-N-{2-[3-(trifluoromethyl)phenyl]ethyl}-1-oxa-8-azaspiro[4.5]dec-3-ene-4-carboxamide] | 500 to 2000
5 | CCN1CCC2(CC1)OC(=O)C(C)=C2C(=O)N1CCc2ccc(C#N)cc2C1 [Compound 49, 2-[(8-ethyl-3-methyl-2-oxo-1-oxa-8-azaspiro[4.5]dec-3-en-4-yl)carbonyl]-1,2,3,4-tetrahydroisoquinoline-7-carbonitrile] | 100 to 500
6 | CC1=C(C(=O)N2CCc3ccc(C(F)(F)F)cc3C2)C2(CCN(C3CCN(C)CC3)CC2)OC1=O [Compound 38, 3-methyl-8-(1-methylpiperidin-4-yl)-4-{[7-(trifluoromethyl)-3,4-dihydroisoquinolin-2(1H)-yl]carbonyl}-1-oxa-8-azaspiro[4.5]dec-3-en-2-one] | 100 to 500
7 | CC1=C(C(=O)N2CCN(c3cccc(C(F)(F)F)c3)CC2)C2(CCN(C3CCC(C(=O)O)CC3)CC2)OC1=O (stereo not shown) [Compound 24, 4-[3-methyl-2-oxo-4-({4-[3-(trifluoromethyl)phenyl]piperazin-1-yl}carbonyl)-1-oxa-8-azaspiro[4.5]dec-3-en-8-yl]cyclohexanecarboxylic acid] | 50 to 100
8 | CC1=C(C(=O)N2CCc3ncc(C(F)(F)F)cc3C2)C2(CCNCC2)OC1=O [Compound 78, 3-methyl-4-{[3-(trifluoromethyl)-7,8-dihydro-1,6-naphthyridin-6(5H)-yl]carbonyl}-1-oxa-8-azaspiro[4.5]dec-3-en-2-one, hydrocloride salt] | 100 to 500
9 | CC1=C(C(=O)N2CCc3ccc(C(F)(F)F)cc3C2)C2(CCN(C3CCS(=O)(=O)CC3)CC2)OC1=O [Compound 37, 8-(1,1-dioxidotetrahydro-2H-thiopyran-4-yl)-3-methyl-4-{[7-(trifluoromethyl)-3,4-dihydroisoquinolin-2(1H)-yl]carbonyl}-1-oxa-8-azaspiro[4.5]dec-3-en-2-one] | 50 to 100
10 | CCN1CCCC2(CC1)OC(=O)C(C)=C2C(=O)N1CCc2ccc(C(F)(F)F)cc2C1 (stereo not shown) [Compound 120, 8-ethyl-3-methyl-4-{[7-(trifluoromethyl)-3,4-dihydroisoquinolin-2(1H)-yl]carbonyl}-1-oxa-8-azaspiro[4.6]undec-3-en-2-one] | < 50
11 | CC1=C(C(=O)N2CCN(c3cccc(C(F)(F)F)c3)CC2)C2(CCN(CCc3ccccc3Cl)CC2)OC1=O [Compound 14, 8-[2-(2-chlorophenyl)ethyl]-3-methyl-4-({4-[3-(trifluoromethyl)phenyl]piperazin-1-yl}carbonyl)-1-oxa-8-azaspiro[4.5]dec-3-en-2-one] | 100 to 500
12 | CC1=C(C(=O)NCc2ccc(C(F)(F)F)cc2)C2(CCN(C(C)C)CC2)OC1=O [Compound 64, 8-isopropyl-3-methyl-2-oxo-N-[4-(trifluoromethyl)benzyl]-1-oxa-8-azaspiro[4.5]dec-3-ene-4-carboxamide] | 500 to 2000
13 | CCN1CCC2(CC1)OC(=O)C(C)=C2C(=O)N1CCC(Nc2cccc(C(F)(F)F)c2)CC1 [Compound 59, 8-ethyl-3-methyl-4-[(4-{[3-(trifluoromethyl)phenyl]amino}piperidin-1-yl)carbonyl]-1-oxa-8-azaspiro[4.5]dec-3-en-2-one] | 500 to 2000
14 | CC1=C(C(=O)N2CCN(c3cccc(C(F)(F)F)c3)CC2)C2(CCN(Cc3cc4ccccc4[nH]3)CC2)OC1=O [Compound 107, 8-(1H-indol-2-ylmethyl)-3-methyl-4-({4-[3-(trifluoromethyl)phenyl]piperazin-1-yl}carbonyl)-1-oxa-8-azaspiro[4.5]dec-3-en-2-one] | 500 to 2000
15 | CCN1CCC2(CC1)OC(=O)C(C)=C2C(=O)N1C[C@@H]2C[C@H]1CN2c1nccc(C(F)(F)F)n1 [Compound 72, 8-ethyl-3-methyl-4-({(1S,4S)-5-[4-(trifluoromethyl)pyrimidin-2-yl]-2.5-diazabicyclo[2.2.1]hept-2-yl}carbonyl)-1-oxa-8-azaspiro[4.5]dec-3-en-2-one] | < 50
16 | CC1=C(C(=O)N2CCN(c3cccc(C(F)(F)F)c3)CC2)C2(CCN(CCc3ccncc3)CC2)OC1=O [Compound 12, 3-methyl-8-(2-pyridin-4-ylethyl)-4-({4-[3-(trifluoromethyl)phenyl]piperazin-1-yl}carbonyl)-1-oxa-8-azaspiro[4.5]dec-3-en-2-one] | 50 to 100
17 | CC1=C(C(=O)N2CCc3ncc(C(F)(F)F)cc3C2)C2(CCN(C3CCOC(C)C3)CC2)OC1=O (stereo not shown) [Compound 47, 3-methyl-8-(2-methyltetrahydro-2H-pyran-4-yl)-4-{[3-(trifluoromethyl)-7,8-dihydro-1,6-naphthyridin-6(5H)-yl]carbonyl}-1-oxa-8-azaspiro[4.5]dec-3-en-2-one] | < 50
18 | COc1ccc(CCN2CCC3(CC2)OC(=O)C(C)=C3C(=O)N2CCN(c3cccc(C(F)(F)F)c3)CC2)cc1 [Example 6, 8-[2-(4-methoxyphenyl)ethyl]-3-methyl-4-({4-[3-(trifluoromethyl)phenyl]piperazin-1-yl]carbonyl)-1-oxa-8-azaspiro[4.5]dec-3-en-2-one, dihydrochloride salt] | < 50
19 | CC1=C(C(=O)N2CCN(c3cccc(C(F)(F)F)c3)CC2)C2(CCN(CCc3ccc(F)cc3)CC2)OC1=O [Example 3, 8-[2-(4-fluorophenyl)ethyl]-3-methyl-4-({4-[3-(trifluoromethyl)phenyl]piperazin-1-yl}carbonyl)-1-oxa-8-azaspiro[4.5]dec-3-en-2-one] | < 50

Further lines, results first:

Row | Ki [nM] | Structure (SMILES)
20 | 500 to 2000 | CCN1CCC2(CC1)OC(=O)C(C)=C2C(=O)N1CCN(c2cc(C(F)(F)F)ccc2C)CC1 [Compound 96, 8-ethyl-3-methyl-4-({4-[2-methyl-5-(trifluoromethyl)phenyl]piperazin-1-yl}carbonyl)-1-oxa-8-azaspiro[4.5]dec-3-en-2-one]
21 | < 50 | CCN1CCC2(CC1)OC(=O)C(C)=C2C(=O)N1CCc2ccc(Cl)cc2C1 [Compound 50, 4-[(7-chloro-3,4-dihydroisoquinolin-2(1H)-yl)carbonyl]-8-ethyl-3-methyl-1-oxa-8-azaspiro[4.5]dec-3-en-2-one]
22 | 500 to 2000 | CCN1CCC2(CC1)OC(=O)C(C)=C2C(=O)N1CCN(c2ccc(C(F)(F)F)cc2)CC1 [Compound 113, 8-ethyl-3-methyl-4-({4-[4-(trifluoromethyl)phenyl]piperazin-1-yl}carbonyl)-1-oxa-8-azaspiro[4.5]dec-3-en-2-one]
23 | < 50 | CCN1CCC2(CC1)OC(=O)C(C)=C2C(=O)N1CCN(c2ccc(Cl)c(C(F)(F)F)c2)CC1 [Compound 82, 4-({4-[4-chloro-3-(trifluoromethyl)phenyl]piperazin-1-yl}carbonyl)-8-ethyl-3-methyl-1-oxa-8-azaspiro[4.5]dec-3-en-2-one]
24 | 100 to 500 | CCN1CCC2(CC1)OC(=O)C(C)=C2C(=O)N1CCN(c2cc(Cl)cc(Cl)c2)CC1 [Compound 114, 4-{[4-(3,5-dichlorophenyl)piperazin-1-yl]carbonyl}-8-ethyl-3-methyl-1-oxa-8-azaspiro[4.5]dec-3-en-2-one]
25 | 50 to 100 | CCN1CCC2(CC1)OC(=O)C(C)=C2C(=O)N1CCCN(c2cccc(C(F)(F)F)c2)CC1 [Compound 90, 8-ethyl-3-methyl-4-({4-[3-(trifluoromethyl)phenyl]-1,4-diazepan-1-yl}carbonyl)-1-oxa-8-azaspiro[4.5]dec-3-en-2-one]
26 | 100 to 500 | CCN1CCC2(CC1)OC(=O)C(C)=C2C(=O)N1CCc2ccc(F)cc2C1 [Compound 53, 8-ethyl-4-[(7-fluoro-3,4-dihydroisoquinolin-2(1H)-yl)carbonyl]-3-methyl-1-oxa-8-azaspiro[4.5]dec-3-en-2-one]
27 | < 50 | CC1=C(C(=O)N2CCN(c3cccc(C(F)(F)F)c3)CC2)C2(CCN(C(C)C)CC2)OC1=O [Compound 101, 8-isopropyl-3-methyl-4-({4-[3-(trifluoromethyl)phenyl]piperazin-1-yl}carbonyl)-1-oxa-8-azaspiro[4.5]dec-3-en-2-one]
28 | < 50 | CCN1CCC2(CC1)OC(=O)C(C)=C2C(=O)N1CCN(c2cc(C(F)(F)F)cc(C(F)(F)F)c2)CC1 [Compound 88, 4-({4-[3,5-bis(trifluoromethyl)phenyl]piperazin-1-yl}carbonyl)-8-ethyl-3-methyl-1-oxa-8-azaspiro[4.5]dec-3-en-2-one]
